Legend:
[1] = molecular target: T1, Urotensin-2 receptor (Rattus norvegicus) (UniProt P49684); test: Agonist activity at UT receptor in Sprague-Dawley rat thoracic aortic ring assessed as induction of contraction relative to KCl-induced contraction; assay type: functional
T1 sequence (whole entry): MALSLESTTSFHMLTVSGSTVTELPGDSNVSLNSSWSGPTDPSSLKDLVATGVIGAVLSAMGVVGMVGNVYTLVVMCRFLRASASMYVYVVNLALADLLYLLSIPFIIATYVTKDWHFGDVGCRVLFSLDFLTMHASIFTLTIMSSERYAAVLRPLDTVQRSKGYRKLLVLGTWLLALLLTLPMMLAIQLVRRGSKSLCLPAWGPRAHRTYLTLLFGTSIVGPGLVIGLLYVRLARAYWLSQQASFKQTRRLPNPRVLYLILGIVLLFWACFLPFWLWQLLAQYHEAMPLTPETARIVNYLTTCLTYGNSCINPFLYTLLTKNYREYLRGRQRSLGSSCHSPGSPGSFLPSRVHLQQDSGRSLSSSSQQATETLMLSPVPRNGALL

[2] = molecular target: T1, Urotensin-2 receptor (Rattus norvegicus); test: (§1) Antagonist activity at UT receptor in Sprague-Dawley rat thoracic aortic ring assessed as reduction in URP-induced contraction by measuring Emax for […] at 1 uM pre-incubated for 30 mins […] relative to KCl-induced contraction (reference value: 107 +/- 3%); assay type: functional
[3] = molecular target: T2, Urotensin-2 receptor (Homo sapiens) (UniProt Q9UKP6); test: Selectivity index, change in deltalog(Tau/KA) for agonist activity at human UT receptor expressed in HEK293 cells co-expressing G12-polycistronic BRET biosensor assessed as induction of G12 activation by luminescence detection based BRET assay to deltalog(Tau/KA) for agonist activity at human UT receptor expressed in HEK293 cells co-expressing Gq-polycistronic BRET biosensor assessed as induction of Gq activation by luminescence detection based BRET assay; assay type: functional, cell-based
T2 sequence (whole entry): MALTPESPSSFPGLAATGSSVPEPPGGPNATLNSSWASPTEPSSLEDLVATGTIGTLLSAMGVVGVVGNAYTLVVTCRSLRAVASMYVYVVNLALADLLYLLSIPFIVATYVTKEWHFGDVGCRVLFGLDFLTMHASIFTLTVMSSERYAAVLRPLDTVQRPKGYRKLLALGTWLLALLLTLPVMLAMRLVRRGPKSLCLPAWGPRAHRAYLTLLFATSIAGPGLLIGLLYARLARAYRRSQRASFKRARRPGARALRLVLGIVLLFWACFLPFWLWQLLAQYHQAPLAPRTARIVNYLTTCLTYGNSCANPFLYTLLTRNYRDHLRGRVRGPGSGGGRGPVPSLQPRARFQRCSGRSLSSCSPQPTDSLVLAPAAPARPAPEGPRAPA

[4] = molecular target: T2, Urotensin-2 receptor (Homo sapiens); test: Agonist activity at human UT receptor expressed in HEK293 cells co-expressing G12-polycistronic BRET biosensor assessed as induction of G12 activation measured for 5 mins by luminescence detection based BRET assay relative to 10 uM URP; assay type: functional, cell-based
[5] = molecular target: T2, Urotensin-2 receptor (Homo sapiens); test: (§2) Selectivity index, change in deltalog(Tau/KA) for agonist activity at human UT receptor expressed in HEK293 cells co-expressing Gq-polycistronic BRET biosensor assessed as induction of Gq activation by luminescence detection based BRET assay to deltalog(Tau/KA) for agonist activity at human UT receptor expressed in HEK293 cells co-expressing beta-arrestin1-polycistronic BRET biosensor assessed as induction of beta-arrestin1 recruitment by luminescence detection based BRET assay; assay type: functional, cell-based
[6] = molecular target: T2, Urotensin-2 receptor (Homo sapiens); test: as §2, with “Bias factor, ratio of” for “Selectivity index, change in”; assay type: functional, cell-based
[7] = molecular target: T2, Urotensin-2 receptor (Homo sapiens); test: Agonist activity at human UT receptor expressed in HEK293 cells co-expressing beta-arrestin1-polycistronic BRET biosensor assessed as induction of beta-arrestin1 recruitment measured for 5 mins by luminescence detection based BRET assay relative to 10 uM URP; assay type: functional, cell-based
[8] = molecular target: T2, Urotensin-2 receptor (Homo sapiens); test: Bias factor, ratio of deltalog(Tau/KA) for agonist activity at human UT receptor expressed in HEK293 cells co-expressing Gq-polycistronic BRET biosensor assessed as induction of Gq activation by luminescence detection based BRET assay to deltalog(Tau/KA) for agonist activity at human UT receptor expressed in HEK293 cells co-expressing G12-polycistronic BRET biosensor assessed as induction of G12 activation by luminescence detection based BRET assay; assay type: functional, cell-based
[9] = molecular target: T2, Urotensin-2 receptor (Homo sapiens); test: Bias factor, ratio of deltalog(Tau/KA) for agonist activity at human UT receptor expressed in HEK293 cells co-expressing G12-polycistronic BRET biosensor assessed as induction of G12 activation by luminescence detection based BRET assay to deltalog(Tau/KA) for agonist activity at human UT receptor expressed in HEK293 cells co-expressing beta-arrestin1-polycistronic BRET biosensor assessed as induction of beta-arrestin1 recruitment by luminescence detection based BRET assay; assay type: functional, cell-based
[10] = molecular target: T1, Urotensin-2 receptor (Rattus norvegicus); test: as §1, with “urotensin-2-induced” for “URP-induced”, “101” for “107”, “4%)” for “3%)”; assay type: functional
[11] = molecular target: T2, Urotensin-2 receptor (Homo sapiens); test: Bias factor, ratio of deltalog(Tau/KA) for agonist activity at human UT receptor expressed in HEK293 cells co-expressing G12-polycistronic BRET biosensor assessed as induction of G12 activation by luminescence detection based BRET assay to deltalog(Tau/KA) for agonist activity at human UT receptor expressed in HEK293 cells co-expressing Gq-polycistronic BRET biosensor assessed as induction of Gq activation by luminescence detection based BRET assay; assay type: functional, cell-based
[12] = molecular target: T2, Urotensin-2 receptor (Homo sapiens); test: Bias factor, ratio of deltalog(Tau/KA) for agonist activity at human UT receptor expressed in HEK293 cells co-expressing beta-arrestin1-polycistronic BRET biosensor assessed as induction of beta-arrestin1 recruitment by luminescence detection based BRET assay to deltalog(Tau/KA) for agonist activity at human UT receptor expressed in HEK293 cells co-expressing G12-polycistronic BRET biosensor assessed as induction of G12 activation by luminescence detection based BRET assay; assay type: functional, cell-based
[13] = molecular target: T2, Urotensin-2 receptor (Homo sapiens); test: Bias factor, ratio of deltalog(Tau/KA) for agonist activity at human UT receptor expressed in HEK293 cells co-expressing beta-arrestin1-polycistronic BRET biosensor assessed as induction of beta-arrestin1 recruitment by luminescence detection based BRET assay to deltalog(Tau/KA) for agonist activity at human UT receptor expressed in HEK293 cells co-expressing Gq-polycistronic BRET biosensor assessed as induction of Gq activation by luminescence detection based BRET assay; assay type: functional, cell-based
[14] = molecular target: T2, Urotensin-2 receptor (Homo sapiens); test: Selectivity index, change in deltalog(Tau/KA) for agonist activity at human UT receptor expressed in HEK293 cells co-expressing beta-arrestin1-polycistronic BRET biosensor assessed as induction of beta-arrestin1 recruitment by luminescence detection based BRET assay to deltalog(Tau/KA) for agonist activity at human UT receptor expressed in HEK293 cells co-expressing G12-polycistronic BRET biosensor assessed as induction of G12 activation by luminescence detection based BRET assay to; assay type: functional, cell-based
[15] = molecular target: T2, Urotensin-2 receptor (Homo sapiens); test: Agonist activity at human UT receptor expressed in HEK293 cells co-expressing Gq-polycistronic BRET biosensor assessed as induction of Gq activation measured for 5 mins by luminescence detection based BRET assay relative to 10 uM URP; assay type: functional, cell-based
Urotensin-2 receptor [16] = molecular target: T3, Urotensin-2 receptor (Homo sapiens, UniProt Q9UKP6); test: Agonist activity at human UT receptor expressed in HEK293 cells co-expressing beta-arrestin1-polycistronic BRET biosensor assessed as induction of beta-arrestin1 recruitment measured for 5 mins by luminescence detection based BRET assay; assay type: functional, cell-based
T3 sequence (Q9UKP6 whole entry): T2 sequence (whole entry)

Urotensin-2 receptor [17] = molecular target: T3, Urotensin-2 receptor; test: Displacement of [Na125I]-synthetic URP from human UT receptor expressed in HEK293 cell membranes incubated for 2 hrs by gamma-counting
Urotensin-2 receptor [18] = molecular target: T4, Urotensin-2 receptor (Rattus norvegicus, UniProt P49684); test: Agonist activity at UT receptor in Sprague-Dawley rat thoracic aortic ring assessed as induction of contraction; assay type: functional
T4 sequence (P49684 whole entry): T1 sequence (whole entry)

Urotensin-2 receptor [19] = molecular target: T3, Urotensin-2 receptor; test: Agonist activity at human UT receptor expressed in HEK293 cells co-expressing Gq-polycistronic BRET biosensor assessed as induction of Gq activation measured for 5 mins by luminescence detection based BRET assay; assay type: functional, cell-based
Urotensin-2 receptor [20] = molecular target: T3, Urotensin-2 receptor; test: Agonist activity at human UT receptor expressed in HEK293 cells co-expressing G12-polycistronic BRET biosensor assessed as induction of G12 activation measured for 5 mins by luminescence detection based BRET assay; assay type: functional, cell-based

Row | Emax [1] [%] | Emax [2] [%] | deltalog(Tau/KA) [3] | Emax [4] [%] | selectivity index, deltadeltalog(Tau/KA) [5] | fold change (FC) [6] | Emax [7] [%] | fold change (FC) [8] | fold change (FC) [9] | Emax [10] [%] | fold change (FC) [11] | fold change (FC) [12] | fold change (FC) [13] | deltadeltalog(Tau/KA) (beta-arrestin1 selectivity index) [14] | Emax [15] [%] | EC50 (Urotensin-2 receptor [16]) [µM] | IC50 (Urotensin-2 receptor [17]) [µM] | EC50 (Urotensin-2 receptor [18]) [µM] | EC50 (Urotensin-2 receptor [19]) [µM] | EC50 (Urotensin-2 receptor [20]) [µM] | SMILES
1 | 53 |  | -0.12 | 73 | -0.32 | 0.5 | 101 | 1.3 | 0.4 |  | 0.8 | 2.8 | 2.1 | 0.45 | 97 | 0.182 | 0.00562 | 0.0316 | 0.0107 | 0.0479 | CC(C)[C@H](NC(=O)[C@@H]1CSSC[C@H](NC(=O)[C@H](C)N)C(=O)N[C@@H](Cc2ccc(I)cc2)C(=O)N[C@@H](Cc2c[nH]c3ccccc23)C(=O)N[C@@H](CCCCN)C(=O)N[C@@H](Cc2ccc(O)cc2)C(=O)N1)C(=O)O
2 | 20 | 100 | 0.89 | 68 | -0.94 | 0.1 | 99 | 0.1 | 0.9 | 52 | 7.8 | 1.1 | 8.6 | 0.04 | 87 |  |  |  |  |  | CC(C)[C@H](NC(=O)[C@@H]1CSSC[C@H](NC(=O)[C@@H](C)N)C(=O)N[C@@H](Cc2ccc(I)cc2)C(=O)N[C@@H](Cc2c[nH]c3ccccc23)C(=O)N[C@@H](CCCCN)C(=O)N[C@@H](Cc2ccc(O)cc2)C(=O)N1)C(=O)O

Second part, the compound before the results:

Row | SMILES | Emax [1] [%] | Emax [2] [%] | deltalog(Tau/KA) [3] | Emax [4] [%] | selectivity index, deltadeltalog(Tau/KA) [5] | fold change (FC) [6] | Emax [7] [%] | fold change (FC) [8] | fold change (FC) [9] | Emax [10] [%] | fold change (FC) [11] | fold change (FC) [12] | fold change (FC) [13] | deltadeltalog(Tau/KA) (beta-arrestin1 selectivity index) [14] | Emax [15] [%] | EC50 (Urotensin-2 receptor [16]) [µM] | IC50 (Urotensin-2 receptor [17]) [µM] | EC50 (Urotensin-2 receptor [18]) [µM] | EC50 (Urotensin-2 receptor [19]) [µM] | EC50 (Urotensin-2 receptor [20]) [µM]
3 | CC(C)[C@H](NC(=O)[C@@H]1CSSC[C@H](NC(=O)[C@@H](C)N)C(=O)N[C@@H](Cc2ccc(C#Cc3ccccc3)cc2)C(=O)N[C@@H](Cc2c[nH]c3ccccc23)C(=O)N[C@@H](CCCCN)C(=O)N[C@@H](Cc2ccc(O)cc2)C(=O)N1)C(=O)O | 8 | 104 | 1.08 | 72 | -0.34 | 0.5 | 36 | 0.1 | 5.6 | 100 | 12.1 | 0.2 | 2.2 | -0.75 | 101 |  |  |  |  | 
4 | CC(C)[C@H](NC(=O)[C@@H]1CSSC[C@H](NC(=O)[C@@H](N)CC(=O)O)C(=O)N[C@H](Cc2ccc(I)cc2)C(=O)N[C@@H](Cc2c[nH]c3ccccc23)C(=O)N[C@@H](CCCCN)C(=O)N[C@@H](Cc2ccc(O)cc2)C(=O)N1)C(=O)O |  |  |  |  |  |  |  |  |  |  |  |  |  |  |  | 0.347 | > 1 | > 10 | 0.0468 | 0.123
5 | CC(C)[C@H](NC(=O)[C@@H]1CSSC[C@H](NC(=O)[C@@H](C)N)C(=O)N[C@@H](Cc2ccc(-c3ccccc3)cc2)C(=O)N[C@@H](Cc2c[nH]c3ccccc23)C(=O)N[C@@H](CCCCN)C(=O)N[C@@H](Cc2ccc(O)cc2)C(=O)N1)C(=O)O | 10 | 91 | 1.7 | 74 | -1.16 | 0.1 | 60 | 0 | 3.5 | 95 | 50 | 0.3 | 14.4 | -0.54 | 102 |  |  |  |  | 
